Results reported in US20240228507A1, “GREEN SOLVENTS FOR CHEMICAL REACTIONS” (ECOLE POLYTECHNIQUE FÉDÉRALE DE LAUSANNE (EPFL), priority 2021, published 2024).

What was measured:
Type in all cases: physicochemical
[1] = Stability under hydrogenation conditions
Description: It is important to note that, DFX was stable under hydrogenation conditions (40 bar of H2, 70° C., 24 h), thus it can be used in reactions requiring high pressure of H2, elevated temperature, and/or long reaction time, which is a very desirable property for biomass-derived solvents.
40 bar of H2, 70° C., 24 h • 2. 40 bar of H2, 250° C., 3 h

[2] = Kamlet-Abboud-Taft solvatochromic parameters (dye absorption spectra); settings: Table 1a
Description: Determination of the Kamlet-Abboud-Taft parameters was based on the absorption spectrum of two dyes (N,N-diethyl-4-nitroaniline and 4-nitroaniline) in different solvents, that allow calculating corresponding values using known procedures (P. G. Jessop, D. A. Jessop, D. Fu and L. Phan, Green Chem., 2012, 14, 1245-1259).

[3] = Miscibility with different solvents; parameters: key: “*” indicating—not miscible; settings: Table 1d; blank cell = miscible
[4] = Stability under acidic conditions; settings: 0.8M HCl
[5] = Stability of DFX under basic conditions (GC-FID/GC-MS, colour change); parameters: key to Reaction (Y/N): *Reaction (Y/N) means color change compared to blank solution.; *Reaction (Y/N) means color change compared to blank solution
Description: To assess DFX stability under basic conditions, we tested a series of organic and inorganic bases at 80° C. and 110° C. for maximum 48 h (Table 6). Visual color change compared to a blank solution of pure DFX indicated some reactions were occurring. After 0.5 h, 24 h, 48 h of exposure, the samples were injected in GC-FID and GC-MS and the area of DFX was compared with the one in blank sample using decane as the internal standard. As a result of this experiment, we identified some potential limitations of this emerging solvent. Specifically, inorganic bases such as K2CO3, NaOH, CsCO3 led to the highest extent of degradation (maximum 21% after 48 h). Triethylamine (NEt3) caused less than 5% of degradation, but led to the formation of dark solution as well as K2CO3, NaOH, CsCO3. Probably, impurities existing in DFX (95% pure) also contribute to a color change as they could interact with bases.

[6] = CsCO3 (base cell blank, row r16), 80° C., 0.5 h
[7] = CsCO3 (base cell blank, row r16), 80° C., 24 h
[8] = CsCO3 (base cell blank, row r16), 80° C., 48 h
[9] = CsCO3 (base cell blank, row r17), 110° C., 0.5 h
[10] = CsCO3 (base cell blank, row r17), 110° C., 24 h
[11] = CsCO3 (base cell blank, row r17), 110° C., 48 h
[12] = CsCO3, 110° C. (row r15), 0.5 h

stability under hydrogenation conditions ([1]; 40 bar of H2, 70° C., 24 h): remained stable
stability under hydrogenation conditions ([1]; 40 bar of H2, 250° C., 3 h): remained stable
Kamlet-Taft Parameters Π* [2]: 0.92
Miscibility with Cyclohexane [3]: *
Miscibility with Hexane [3]: *
Miscibility with di-n-butyl ether [3]: *
DFX recovered ([4]; 70 to 95° C., no formaldehyde): more than 80%
DFX stable ([4]; formaldehyde added): around 90%
DFX degradation [5, 6]: 1%
Reaction (Y/N) [5, 6]: Y
DFX degradation [5, 7]: 4%
Reaction (Y/N) [5, 7]: Y
DFX degradation [5, 8]: 8%
Reaction (Y/N) [5, 8]: Y
DFX degradation [5, 9]: 1%
Reaction (Y/N) [5, 9]: Y
DFX degradation [5, 10]: 7%
Reaction (Y/N) [5, 10]: Y
DFX degradation [5, 11]: 11%
Reaction (Y/N) [5, 11]: Y
DFX degradation [5, 12]: 3%
Reaction (Y/N) [5, 12]: Y
DFX degradation ([5]; CsCO3, 110° C. (row r15), 24 h): 11%
Reaction (Y/N) ([5]; CsCO3, 110° C. (row r15), 24 h): Y
DFX degradation ([5]; CsCO3, 110° C. (row r15), 48 h): 21%
Reaction (Y/N) ([5]; CsCO3, 110° C. (row r15), 48 h): Y
DFX degradation ([5]; K2CO3, 80° C., 0.5 h): 2%
Reaction (Y/N) ([5]; K2CO3, 80° C., 0.5 h): Y
DFX degradation ([5]; K2CO3, 80° C., 24 h): 3%
Reaction (Y/N) ([5]; K2CO3, 80° C., 24 h): Y
DFX degradation ([5]; K2CO3, 80° C., 48 h): 7%
Reaction (Y/N) ([5]; K2CO3, 80° C., 48 h): Y
DFX degradation ([5]; K2CO3, 110° C., 0.5 h): 2%
Reaction (Y/N) ([5]; K2CO3, 110° C., 0.5 h): Y
DFX degradation ([5]; K2CO3, 110° C., 24 h): 5%
Reaction (Y/N) ([5]; K2CO3, 110° C., 24 h): Y
DFX degradation ([5]; K2CO3, 110° C., 48 h): 13%
Reaction (Y/N) ([5]; K2CO3, 110° C., 48 h): Y
DFX degradation ([5]; KOAc, 80° C., 0.5 h): 0%
Reaction (Y/N) ([5]; KOAc, 80° C., 0.5 h): N
DFX degradation ([5]; KOAc, 80° C., 24 h): 2%
Reaction (Y/N) ([5]; KOAc, 80° C., 24 h): N
DFX degradation ([5]; KOAc, 80° C., 48 h): 3%
Reaction (Y/N) ([5]; KOAc, 80° C., 48 h): N
DFX degradation ([5]; KOAc, 110° C., 0.5 h): 1%
Reaction (Y/N) ([5]; KOAc, 110° C., 0.5 h): Y
DFX degradation ([5]; KOAc, 110° C., 24 h): 3%
Reaction (Y/N) ([5]; KOAc, 110° C., 24 h): Y
DFX degradation ([5]; KOAc, 110° C., 48 h): 5%
Reaction (Y/N) ([5]; KOAc, 110° C., 48 h): Y
DFX degradation ([5]; NEt3, 80° C., 0.5 h): 3%
Reaction (Y/N) ([5]; NEt3, 80° C., 0.5 h): Y
DFX degradation ([5]; NEt3, 80° C., 24 h): 4%
Reaction (Y/N) ([5]; NEt3, 80° C., 24 h): Y
DFX degradation ([5]; NEt3, 80° C., 48 h): 5%
Reaction (Y/N) ([5]; NEt3, 80° C., 48 h): Y
DFX degradation ([5]; NaOH, 80° C., 0.5 h): 0%
Reaction (Y/N) ([5]; NaOH, 80° C., 0.5 h): Y
DFX degradation ([5]; NaOH, 80° C., 24 h): 9%
Reaction (Y/N) ([5]; NaOH, 80° C., 24 h): Y
DFX degradation ([5]; NaOH, 80° C., 48 h): 17%
Reaction (Y/N) ([5]; NaOH, 80° C., 48 h): Y
DFX degradation ([5]; Pyridine, 80° C., 0.5 h): 0%
Reaction (Y/N) ([5]; Pyridine, 80° C., 0.5 h): N
DFX degradation ([5]; Pyridine, 80° C., 24 h): 0%
Reaction (Y/N) ([5]; Pyridine, 80° C., 24 h): N
DFX degradation ([5]; Pyridine, 80° C., 48 h): 0%
Reaction (Y/N) ([5]; Pyridine, 80° C., 48 h): N
DFX degradation ([5]; Pyridine, 110° C., 0.5 h): 0%
Reaction (Y/N) ([5]; Pyridine, 110° C., 0.5 h): N
DFX degradation ([5]; Pyridine, 110° C., 24 h): 3%
Reaction (Y/N) ([5]; Pyridine, 110° C., 24 h): Y
DFX degradation ([5]; Pyridine, 110° C., 48 h): 6%
Reaction (Y/N) ([5]; Pyridine, 110° C., 48 h): Y
DFX degradation ([5]; Triethylamine (NEt3)): less than 5%
DFX degradation, highest extent ([5]; inorganic bases K2CO3, NaOH, CsCO3, after 48 h): ≤ 21%
SMILES: C1OC[C@H]2O[C@@H]3OCO[C@@H]3[C@H]2O1 [DFX, Diformylxylose]
